Source: US20240180881A1, “METHODS FOR DECREASING RESISTANCE TO CHEMOTHERAPY” (National Institute of Immunology, priority 2022, published 2024)
Each block holds one compound with its values, some of them ahead of it.

Legend:
[1] = system: MDR genes (MRP2, MRP3, MRP5, MXR) in HCT116 IC60 CPTR cells; conditions: 100 nM compound alone, 72 hours
Procedure: (§1) Concentrations of CPT used: 0.140 nM, 20 nM, 50 nM, 1000 nM. Concentration of 1-OHP: 0.14 μM, 2 μM, 4 μM, 6 μM, 8 μM. Concentrations of CDDP used: 0.140 μM, 2 μM, 5 μM, 10 μM. The percentage of viable cells were determined by MTT assays (FIG. 12A-12C). The data in FIG. 12A and FIG. 12C is from three independent experiments and the data in FIG. 12B is from nine independent experiments. […] The levels of MRP2, MRP3, MRP5, MXR were quantitated from three independent experiments. […] Specifically, HCT116 IC60 CPTR cells were transfected with the HR substrate for 72 hours and the levels of HR was determined (FIG. 6A). The data is from three independent experiments. […] The number of soft agar colonies in each condition were counted. The data is from three independent experiments.

CT26 cells = assay: Syngeneic or allogenic model, CT26; type: in vivo, BALB/c mice; conditions: for tumour volume, chemoresistance: CPT + compound
Procedure: Xenografts assays were carried out in BALB/c mice using CT26 cells.
RNA (FIG. 17D) or protein (FIG. 17E) levels of the indicated MDR genes were determined by RT-qPCR or immunoblotting with the indicated antibodies.

[2] = system: HCT116 IC60 1-OHPR tumors; assay: Xenograft model, oxaliplatin resistant cells; type: in vivo, NSG mice; conditions: 1-OHP 2 mg/kg + compound 5 mg/kg, compared to 1-OHP alone
Procedure: Tumors from different groups were excised at the end of the experiments. […] For these experiments, RNA and protein was isolated from tumors obtained at the end point of the xenograft experiment. RNA and the protein levels of MRP2 were determined by RT-qPCR and western blotting with anti-MRP2 antibody. For each group three tumor samples were analyzed (FIG. 6F, 6G). […] The levels of the indicated MDR genes were quantitated from three tumor samples from each group. Mean±S.D. (FIG. 13A). […] The experiment was repeated three times and one representative experiment has been shown (FIG. 13B).
In all cases tumor volume were measured at the indicated days post-injection using the following formula: Tumor volume=½(length×width2).

[3] = system: homologous recombination in HCT116 IC60 CPTR cells; assay: HR assay; type: cell-based; conditions: HR substrate transfected for 72 hours
Procedure: as §1
For HR assay, 10 μg of the HR plasmid (Seluanov et al., 2010) was digested with I-SceI, purified and eluted into 20 μl of 10 mM TrisHCl pH 8.0. 5 μg of the linearized reporter cassette along with 100 ng of tdTomato-N1 plasmid were transfected in an exponentially growing 10 cm dish of cells using FuGENE® HD Transfection Reagent. After 3 days of transfection, the cells were harvested. The GFP positive and TdRed positive cells were analysed by FACS. SCE assays were carried out as described earlier (Chabosseau et al., 2011).

His-RAD54 WT = target: T1, His-RAD54 WT (Homo sapiens, UniProt Q92698); assay: Octet Bio-Layer Interferometry (BLI) binding; conditions: His-RAD54 WT immobilized onto Ni-NTA-sensor, 25° C.; read-out: affinity constant (KD)
T1 construct: made in house; host or cells: E. coli BL-21 DE3
T1 sequence (Q92698 1-747): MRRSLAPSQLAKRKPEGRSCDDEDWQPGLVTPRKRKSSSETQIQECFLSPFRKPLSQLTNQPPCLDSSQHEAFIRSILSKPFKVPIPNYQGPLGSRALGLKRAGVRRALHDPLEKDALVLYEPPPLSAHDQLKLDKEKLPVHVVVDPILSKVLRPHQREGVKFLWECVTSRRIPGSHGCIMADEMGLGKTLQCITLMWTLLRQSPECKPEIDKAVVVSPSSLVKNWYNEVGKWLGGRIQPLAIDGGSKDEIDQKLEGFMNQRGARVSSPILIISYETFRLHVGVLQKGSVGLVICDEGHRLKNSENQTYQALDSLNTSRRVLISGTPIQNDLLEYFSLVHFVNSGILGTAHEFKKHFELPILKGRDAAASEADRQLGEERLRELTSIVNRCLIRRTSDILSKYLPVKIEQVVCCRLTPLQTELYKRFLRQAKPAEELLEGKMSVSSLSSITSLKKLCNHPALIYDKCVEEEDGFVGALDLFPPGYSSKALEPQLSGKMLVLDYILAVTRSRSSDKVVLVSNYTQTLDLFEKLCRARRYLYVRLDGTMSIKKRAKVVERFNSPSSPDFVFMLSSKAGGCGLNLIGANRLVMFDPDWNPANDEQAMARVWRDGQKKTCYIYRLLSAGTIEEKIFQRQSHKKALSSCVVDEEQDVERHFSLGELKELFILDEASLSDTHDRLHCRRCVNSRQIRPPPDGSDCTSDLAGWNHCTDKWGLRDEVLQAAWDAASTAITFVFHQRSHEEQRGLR
Procedure: The interactions between RAD54 and biotinylated BLM_peptide (181-212) as well as the various compounds were studied using Bio-layer interferometry (BLI) using the Octet K2 system (ForteBio Systems). Approximately, 250 μg of His-tagged RAD54 was immobilized onto a Ni-NTA chip for 600 s and the unbound protein was washed using 10 mM HEPES pH 7.5 buffer. […] Each of the reaction set was then used to check for their association with RAD54 captured on the sensor. The kinetics of the RAD54-BLM interaction was monitored for 180 s each for the association and the dissociation curves by dipping the sensors in a series of increasing concentrations of the BLM_peptide. 500 mM NaCl was used as the dissociation buffer. A control sensor with the immobilized RAD54 was used in parallel and was used to normalize the data. Washing in 350 mM EDTA regenerated the sensors for the next cycle of binding kinetics. The experiments were performed at 25° C. All the real-time data was analysed and KD values were determined using the Octet® Evaluation software using 1:1 fitting curves.

[4] = target: T2, RAD54 chromatin remodeling activity (Homo sapiens, UniProt Q92698); assay: Restriction enzyme accessibility (REA) assay on chromatinized G5E4 array; type: biochemical; conditions: 10 μM compound, +ATP
T2 construct: GST RAD54 (1-747) (WT), GST BLM (1-1417) (WT), His RAD54 (1-747) (WT); made in house; host or cells: E. coli BL-21 DE3
T2 sequence (Q92698 1-747): T1 sequence (Q92698 1-747)
Text: (§2) The data is from three independent experiments.
as §2

HCT116 IC60 CPTR tumors = assay: Xenograft model, camptothecin resistant cells; conditions: for tumor growth: CPT 1.25 mg/kg + compound 5 mg/kg intraperitoneally every 3 days, compared to CPT alone; for apoptosis in tumors, TUNEL positivity: dual treatment with CPT; for cell proliferation in tumors, Ki67 and PCNA levels: dual treatment with CPT/1-OHP

- Kd (His-RAD54 WT): 55.8 µM
Structure (SMILES): CC(=O)Nc1nnc(S(N)(=O)=O)s1 [C3, Acetazolamide]
- transcript levels of MDR genes [1]: do not alter the transcript levels of MDR genes
- tumour volume, chemoresistance (CT26 cells): reverses chemoresistance
- tumor growth [2]: inhibited the tumor growth
- levels of HR [3]: decreased the levels of the HR
- BLM (1-212) dependent enhancement of RAD54 chromatin remodeling, fraction uncut [4]: decrease the efficiency of BLM dependent enhancement of RAD54 chromatin remodeling activity
- tumor growth (HCT116 IC60 CPTR tumors): inhibited the tumor growth
- apoptosis in tumors, TUNEL positivity (HCT116 IC60 CPTR tumors): increased apoptosis
- cell proliferation in tumors, Ki67 and PCNA levels (HCT116 IC60 CPTR tumors): Decreased cell proliferation

Structure (SMILES): OCCN(CCO)c1nc(N2CCCCC2)c2nc(N(CCO)CCO)nc(N3CCCCC3)c2n1 [C7, Dipyridamole]
- transcript levels of MDR genes [1]: do not alter the transcript levels of MDR genes
- tumour volume, chemoresistance (CT26 cells): reverses chemoresistance
- tumor growth [2]: inhibited the tumor growth
- levels of HR [3]: decreased the levels of the HR
- Kd (His-RAD54 WT): 5.04 µM
- BLM (1-212) dependent enhancement of RAD54 chromatin remodeling, fraction uncut [4]: decrease the efficiency of BLM dependent enhancement of RAD54 chromatin remodeling activity
- tumor growth (HCT116 IC60 CPTR tumors): inhibited the tumor growth
- apoptosis in tumors, TUNEL positivity (HCT116 IC60 CPTR tumors): increased apoptosis
- cell proliferation in tumors, Ki67 and PCNA levels (HCT116 IC60 CPTR tumors): Decreased cell proliferation

Structure (SMILES): CN1CCN(C2=Nc3ccccc3Oc3ccc(Cl)cc32)CC1.O=C(O)CCC(=O)O [C17, Loxapine succinate]
- tumour volume, chemoresistance (CT26 cells): reverses chemoresistance
- RNA and protein levels of the MDR genes in tumours (CT26 cells; without or with compound treatment): decreased
- tumor growth [2]: inhibited the tumor growth
- levels of HR [3]: decreased the levels of the HR
- Kd (His-RAD54 WT): 0.0803 µM
- BLM (1-212) dependent enhancement of RAD54 chromatin remodeling, fraction uncut [4]: decrease the efficiency of BLM dependent enhancement of RAD54 chromatin remodeling activity
- tumor growth (HCT116 IC60 CPTR tumors): inhibited the tumor growth
- RNA and protein levels of multiple MDR genes (including MRP2) in tumors (HCT116 IC60 CPTR tumors; co-treated with CPT 1.25 mg/kg and compound 5 mg/kg, end point): very significantly decreased
- apoptosis in tumors, TUNEL positivity (HCT116 IC60 CPTR tumors): increased apoptosis
- cell proliferation in tumors, Ki67 and PCNA levels (HCT116 IC60 CPTR tumors): Decreased cell proliferation
